pIC50: −log10 of the molar value.
Target: T1, KRAS G12C (GMPPNP-loaded) and cRAF Ras-binding domain (Homo sapiens, UniProt P01116, C118S/C51S/C80L/G12C)
T1 construct: truncated version comprising amino acids 1-169
Experiment: Inhibition of KRAS G12C and cRAF binding (AlphaScreen)
Conditions: KRAS G12C preloaded with GTP analogue GMPPNP, 2 hours preincubation
Procedure, shortened: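 AlphaScreen used biotin-AviTag KRAS G12C (Cys-light, aa 1-169; 0.5 nM), GMPPNP-loaded, preincubated 2 h with compound (top 50 μM, 1:3, 10 points, 2% DMSO) in pH 7.4 Hepes buffer with 10 μM GMPPNP. GST-cRAF RBD (aa 50-131; 0.75 nM) plus beads were then added for 60-90 min at room temperature, and IC50 came from a 4-parameter fit.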

T1 sequence (P01116 1-169 isoform P01116-2 G12C/C51S/C80L/C118S): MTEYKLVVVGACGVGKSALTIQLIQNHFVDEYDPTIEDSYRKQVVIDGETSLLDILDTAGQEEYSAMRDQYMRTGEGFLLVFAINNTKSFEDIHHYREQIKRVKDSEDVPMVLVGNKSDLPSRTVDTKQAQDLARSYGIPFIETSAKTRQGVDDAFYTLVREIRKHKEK

| pIC50 | SMILES |
| --- | --- |
| ≤ 6.30 | C=CC(=O)N1CC[C@@H](N(C)c2nc(OC[C@@]34CCCN3C[C@H](F)C4)nc3c(F)c(-c4cncnc4C4CC4)ncc23)C1 [Example 260] |
| ≤ 6.30 | C=CC(=O)N1CC[C@@H](N(C)c2nc(OC[C@@]34CCCN3C[C@H](F)C4)nc3c(F)c(-c4cc(C(F)F)ccc4Cl)ncc23)C1 [Example 251] |
| ≤ 6.30 | C=CC(=O)N1CC[C@@H](N(C)C2=c3cnc(-c4c[nH]nc4Cl)c(F)c3=NC(OC[C@@]34CCCN3C[C@H](F)C4)N2)C1 (some centres unmarked) [Example 225] |
| 6.30 to 7.00 | Cc1cc(N)nc(-c2ncc3c(N(C)CC4CN(C(=O)/C=C/c5nc(C(C)C)no5)C4)nc(OC[C@@]45CCCN4C[C@H](F)C5)nc3c2F)c1C1CC1 [Example 175] |
| ≤ 6.30 | C=CC(=O)N1CC(CN(C)c2nc(OCC34CCCN3CCC4)nc3c2C[C@H](C)[C@@H](c2nc(N)cc(C)c2C(F)(F)F)C3)C1 [Example 109] |
| > 8.00 | CN(CC1CN(C(=O)/C=C/c2nc(C(C)(C)O)no2)C1)c1nc(OC[C@@]23CCCN2C[C@H](F)C3)nc2c(F)c(-c3nc(N)cc4cccc(F)c34)ncc12 [Example 35, (E)-1-(3-(((7-(3-amino-8-fluoroisoquinolin-1-yl)-8-fluoro-2-(((2R,7aS)-2-fluorohexahydro-1H-pyrrolizin-7a-yl)methoxy)pyrido[4,3-d]pyrimidin-4-yl)(methyl)amino)methyl)azetidin-1-yl)-3-(3-(2-hydroxypropan-2-yl)-1,2,4-oxadiazol-5-yl)prop-2-en-1-one] |
| 7.00 to 8.00 | Cc1nsc(/C=C/C(=O)N2CC(CN(C)c3nc(OC[C@@]45CCCN4C[C@H](F)C5)nc4c3C[C@@H](C)[C@H](c3nc(N)cc(C)c3C(F)(F)F)C4)C2)n1 (single isomer, unassigned) [Example 126] |
| 7.00 to 8.00 | CN(c1nc(OC[C@@]23CCCN2C[C@H](F)C3)nc2c(F)c(-c3cccc(Cl)c3C3CC3)ncc12)[C@@H]1CCN(C(=O)/C=C/CN2C[C@@H]3C[C@H]2CO3)C1 [Example 231] |
| 7.00 to 8.00 | CN(c1nc(OC[C@@]23CCCN2C[C@H](F)C3)nc2c(F)c(-c3cccc(Cl)c3C3CC3)ncc12)[C@@H]1CCN(C(=O)C#C[C@]2(C)CCCN2C)C1 [Example 208] |
| ≤ 6.30 | C=CC(=O)N1CC[C@@H](N(C)c2nc(OC[C@@]34CCCN3C[C@H](F)C4)nc3c(F)c(-c4c(O)cccc4C4CC4)ncc23)C1 [Example 218] |
| ≤ 6.30 | C=CC(=O)N1CC[C@@H](N(C)c2nc(OC[C@@]34CCCN3C[C@H](F)C4)nc3c(F)c(-c4cncc5ccc(F)c(F)c45)ncc23)C1 [Example 190] |
| ≤ 6.30 | C=CC(=O)N1CC[C@@H](N(C)c2nc(OCC34CCCN3CCC4)nc3c2C[C@@H](C)[C@H](c2nc(N)cc(C)c2C(F)(F)F)C3)C1 [Example 149, 1-((R)-3-(((6R,7R)-7-(6-amino-4-methyl-3-(trifluoromethyl)pyridin-2-yl)-6-methyl-2-((tetrahydro-1H-pyrrolizin-7a(5H)-yl)methoxy)-5,6,7,8-tetrahydroquinazolin-4-yl)(methyl)amino)pyrrolidin-1-yl)prop-2-en-1-one] |
| ≤ 6.30 | C=CC(=O)N1CC[C@@H](N(C)c2nc(OC[C@@]34CCCN3C[C@H](F)C4)nc3c(F)c(-c4cc(OC)cc5nccnc45)ncc23)C1 [Example 230] |
| 6.30 to 7.00 | C=CC(=O)N1CC[C@@H](N(C)c2nc(OC[C@@]34CCCN3C[C@H](F)C4)nc3c2C[C@@H](C)[C@H](c2nc(N)cc(C)c2C(F)(F)F)C3)C1 [Example 59, 1-((R)-3-(((6R,7R)-7-(6-amino-4-methyl-3-(trifluoromethyl)pyridin-2-yl)-2-(((2R,7aS)-2-fluorohexahydro-1H-pyrrolizin-7a-yl)methoxy)-6-methyl-5,6,7,8-tetrahydroquinazolin-4-yl)(methyl)amino)pyrrolidin-1-yl)prop-2-en-1-one] |
| ≤ 6.30 | C=CC(=O)N1CC[C@@H](N(C)c2nc(OC[C@@]34CCCN3C[C@H](F)C4)nc3c(F)c(-c4cccc(C(F)(F)F)c4C4CC4)ncc23)C1 [Example 198] |
| ≤ 6.30 | CC(C)c1noc(/C=C/C(=O)N2CC[C@@H](N(C)c3nc(OC[C@@]45CCCN4C[C@H](F)C5)nc4c(F)c(-c5nc(N)ccc5F)ncc34)C2)n1 [Example 178, (E)-1-((R)-3-((7-(6-amino-3-fluoropyridin-2-yl)-8-fluoro-2-(((2R,7aS)-2-fluorotetrahydro-1H-pyrrolizin-7a(5H)-yl)methoxy)pyrido[4,3-d]pyrimidin-4-yl)(methyl)amino)pyrrolidin-1-yl)-3-(3-isopropyl-1,2,4-oxadiazol-5-yl)prop-2-en-1-one] |

| pIC50 | SMILES |
| --- | --- |
| ≤ 6.30 | C=CC(=O)N1CC[C@@H](N(C)c2nc(OC[C@@]34CCCN3C[C@H](F)C4)nc3c2CCN(c2nc(N)cc(C)c2C(F)(F)F)C3)C1 [Example 111, 1-((R)-3-((7-(6-amino-4-methyl-3-(trifluoromethyl)pyridin-2-yl)-2-(((2R,7aS)-2-fluorotetrahydro-1H-pyrrolizin-7a(5H)-yl)methoxy)-5,6,7,8-tetrahydropyrido[3,4-d]pyrimidin-4-yl)(methyl)amino)pyrrolidin-1-yl)prop-2-en-1-one] |
| > 8.00 | CN(C)CC#CC(=O)N1CC[C@@H](N(C)c2nc(OC[C@@]34CCCN3C[C@H](F)C4)nc3c(F)c(-c4nc(N)cc5cccc(Cl)c45)ncc23)C1 [Example 38, 1-((R)-3-((7-(3-amino-8-chloroisoquinolin-1-yl)-8-fluoro-2-(((2R,7aS)-2-fluorohexahydro-1H-pyrrolizin-7a-yl)methoxy)pyrido[4,3-d]pyrimidin-4-yl)(methyl)amino)pyrrolidin-1-yl)-4-(dimethylamino)but-2-yn-1-one] |
| 7.00 to 8.00 | Cc1cc(N)nc(-c2ncc3c(N(C)[C@@H]4CCN(C(=O)C#CCN5CCOCC5)C4)nc(OC[C@@]45CCCN4C[C@H](F)C5)nc3c2F)c1C(F)(F)F [Example 101] |
| ≤ 6.30 | C=CC(=O)N1CC(CN(C)c2nc(OCC34CCCN3CCC4)nc3c2CC(C)C(c2nc(N)cc(C)c2C(F)(F)F)C3)C1 (centres unmarked) [Example 207] |
| > 8.00 | Cc1cc(N)nc(-c2ncc3c(N(C)CC4CN(C(=O)/C=C/c5nc(C(C)C)no5)C4)nc(OC[C@@]45CCCN4C[C@H](F)C5)nc3c2F)c1C(F)(F)F [Example 51, (E)-1-(3-(((7-(6-amino-4-methyl-3-(trifluoromethyl)pyridin-2-yl)-8-fluoro-2-(((2R,7aS)-2-fluorohexahydro-1H-pyrrolizin-7a-yl)methoxy)pyrido[4,3-d]pyrimidin-4-yl)(methyl)amino)methyl)azetidin-1-yl)-3-(3-isopropyl-1,2,4-oxadiazol-5-yl)prop-2-en-1-one] |
| ≤ 6.30 | C=CC(=O)N1CC(CN(C)c2nc(OC[C@@]34CCCN3C[C@H](F)C4)nc3c2CC(C)C(c2nc(N)cc(C)c2C(F)(F)F)C3)C1 (stereo partly drawn) [Example 67, 1-(3-(((7-(6-amino-4-methyl-3-(trifluoromethyl)pyridin-2-yl)-2-(((2R,7aS)-2-fluorohexahydro-1H-pyrrolizin-7a-yl)methoxy)-6-methyl-5,6,7,8-tetrahydroquinazolin-4-yl)(methyl)amino)methyl)azetidin-1-yl)prop-2-en-1-one] |
| 6.30 to 7.00 | C=CC(=O)N1CC(CN(C)c2nc(OC[C@@]34CCCN3C[C@H](F)C4)nc3c2C[C@@H](C)[C@H](c2nc(N)cc(C)c2C(F)(F)F)C3)C1 [Example 132] |
| ≤ 6.30 | CN(c1nc(OC[C@@]23CCCN2C[C@H](F)C3)nc2c(F)c(-c3nc(N)cc4cccc(F)c34)ncc12)[C@@H]1CCN(C(=O)/C=C/CN2CCOCC2)C1 [Example 167, (E)-1-((R)-3-((7-(3-amino-8-fluoroisoquinolin-1-yl)-8-fluoro-2-(((2R,7aS)-2-fluorotetrahydro-1H-pyrrolizin-7a(5H)-yl)methoxy)pyrido[4,3-d]pyrimidin-4-yl)(methyl)amino)pyrrolidin-1-yl)-4-morpholinobut-2-en-1-one] |
| 7.00 to 8.00 | C=CC(=O)N1CC[C@@H](N(C)c2nc(OC[C@@]34CCCN3C[C@H](F)C4)nc3c(F)c(-c4cccc5sc(N)nc45)ncc23)C1 [Example 244] |
| 7.00 to 8.00 | CN(c1nc(OC[C@@]23CCCN2C[C@H](F)C3)nc2c(F)c(-c3cccc(Cl)c3C3CC3)ncc12)[C@@H]1CCN(C(=O)/C=C/CN2CC[C@H](F)C2)C1 [Example 238] |
| ≤ 6.30 | C=CC(=O)N1CC[C@@H](N(C)c2nc(OC[C@@]34CCCN3C[C@H](F)C4)nc3c(F)c(-c4cnn5cccc(F)c45)ncc23)C1 [Example 212] |
| ≤ 6.30 | C=CC(=O)N1CC[C@@H](N(C)c2nc(OC[C@@]34CCCN3C[C@H](F)C4)nc3c(F)c(-c4c(O)cccc4Cl)ncc23)C1 [Example 229] |
| 6.30 to 7.00 | CC(C)c1noc(/C=C/C(=O)N2CC(CN(C)c3nc(OC[C@@]45CCCN4C[C@H](F)C5)nc4c(F)c(-c5nc(N)cc6cccc(Cl)c56)ncc34)C2)n1 [Example 118] |
| > 8.00 | Cc1cc(N)nc(-c2ncc3c(N(C)CC4CN(C(=O)/C=C/c5nc(C6CC6)no5)C4)nc(OC[C@@]45CCCN4C[C@H](F)C5)nc3c2F)c1C(F)(F)F [Example 176] |
| > 8.00 | Cc1cc(N)nc([C@@H]2Cc3nc(OC[C@@]45CCCN4C[C@H](F)C5)nc(N(C)[C@@H]4CCN(C(=O)/C=C/c5nc(C(C)(C)O)no5)C4)c3C[C@H]2C)c1C(F)(F)F [Example 89, (E)-1-((R)-3-(((6R,7R)-7-(6-amino-4-methyl-3-(trifluoromethyl)pyridin-2-yl)-2-(((2R,7aS)-2-fluorotetrahydro-1H-pyrrolizin-7a(5H)-yl)methoxy)-6-methyl-5,6,7,8-tetrahydroquinazolin-4-yl)(methyl)amino)pyrrolidin-1-yl)-3-(3-(2-hydroxypropan-2-yl)-1,2,4-oxadiazol-5-yl)prop-2-en-1-one] |
| 7.00 to 8.00 | Cc1noc(/C=C/C(=O)N2CC[C@@H](N(C)c3nc(OCC45CCCN4CCC5)nc4c3C[C@H](C)C(c3nc(N)cc(C)c3C(F)(F)F)C4)C2)n1 (stereo in doubt) [Example 163] |

From patent publication US20260256789A1, “METHODS FOR TREATMENT OF CANCER” (Frontier Medicines Corporation, priority 2022, published 2026)
